In patent publication US20250179047A1, “5-[7-(3,4-DIHYDRO-1H-ISOQUINOLINE-2-CARBONYL)-1,2,3,4 TETRAHYDROISOQUINOLIN-6-YL]-1H-PYRROLE-3-CARBOXAMIDE DERIVATIVES, PHARMACEUTICAL COMPOSITIONS CONTAINING THEM AND THEIR USES AS PRO-APOPTOTIC AGENTS” (LES LABORATOIRES SERVIER, priority 2022, published 2025):

How the values were obtained:
BCLXL WT = BCLXL WT (Homo sapiens (Human), UniProt Q07817); test: TR-FRET competitive binding assay, BCLXL WT; conditions: for Ki: BCLXL WT, Ki determined from IC50, read-out: TR_FRET EKI BclxL; for TR_FRET EKI BCLxL/WT selectivty ratio: ratio Ki BCLxL / Ki BCL2 WT
Chain of BCLXL WT (Q07817 other isoform, or with tags, fused parts or gaps): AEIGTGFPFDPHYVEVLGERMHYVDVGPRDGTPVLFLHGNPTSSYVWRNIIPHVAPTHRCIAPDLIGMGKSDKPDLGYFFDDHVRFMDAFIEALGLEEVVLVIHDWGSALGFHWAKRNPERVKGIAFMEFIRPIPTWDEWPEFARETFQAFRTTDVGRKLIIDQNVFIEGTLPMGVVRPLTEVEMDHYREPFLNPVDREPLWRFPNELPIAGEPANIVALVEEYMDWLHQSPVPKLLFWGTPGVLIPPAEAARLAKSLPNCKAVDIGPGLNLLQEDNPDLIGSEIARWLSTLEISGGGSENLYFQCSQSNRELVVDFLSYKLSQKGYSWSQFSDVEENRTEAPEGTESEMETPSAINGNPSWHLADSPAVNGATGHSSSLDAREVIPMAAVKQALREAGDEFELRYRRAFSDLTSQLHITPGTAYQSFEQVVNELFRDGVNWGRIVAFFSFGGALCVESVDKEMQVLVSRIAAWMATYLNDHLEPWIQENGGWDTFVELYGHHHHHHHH
Outline: (§1)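 Ki derived from IC50 (11-point dilution, 520/495 nm emission ratio) for displacing a fluorescein-labelled PUMA peptide (2 or 20 nM). Target was 0.5 nM E. coli-expressed Halo-tagged BCL2 (1-207) or BCLXL (2-196), terbium-labelled on Halo. Incubation 2 h at 23°C in pH 7.5 Hepes with 150 mM NaCl and 5% DMSO.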

BCL2 G101V [1] = target: BCL2 G101V (Homo sapiens, UniProt P10415, G101V); test: TR-FRET competitive binding assay, BCL2 G101V; conditions: BCL2 G101V; Ki determined from IC50; read-out: TR_FRET EKI_Bcl2 G101V
Outline: as §1

BCL2 G101V [2] = test: TR-FRET competitive binding assay, BCL2 G101V; design: species or system human; conditions: ratio Ki BCL2 G101V / Ki BCL2 WT
Outline: as §1

BCL2 D103Y = BCL2 D103Y (Homo sapiens, UniProt P10415, D103Y); test: TR-FRET competitive binding assay, BCL2 D103Y; conditions: Ki determined from IC50, read-out: TR_FRET EKI_Bcl2 D103Y
Outline: as §1

BCL2 WT = BCL2 WT (Homo sapiens (Human), UniProt P10415); test: TR-FRET competitive binding assay, BCL2 WT; conditions: Ki determined from IC50, read-out: TR_FRET EKI_Bcl2 WT
Outline: as §1

KMS-12-PE Bcl-2 G101V = test: In vitro cytotoxicity CellTiter-Glo 48 h, KMS-12-PE Bcl-2 G101V; assay type: cell-based; conditions: for Ratio (G101V/WT): C50 KMS-12-PE Bcl-2 G101V over C50 KMS-12-PE Bcl-2 WT; for IC50: Homo sapiens, KMS-12-PE, 48 h, CellTiter-Glo, C50 = concentration needed to reach 50% of the cellular viability
Outline: (§2)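 Bcl-2 WT- and G101V-expressing KMS-12-PE cells; 48 h treatment at 37 °C, 5% CO2; CellTiter-Glo ATP luminescence; C50 from 11-point curves.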

KMS-12-PE Bcl-2 WT = test: In vitro cytotoxicity CellTiter-Glo 48 h, KMS-12-PE Bcl-2 WT; assay type: cell-based; conditions: Homo sapiens, KMS-12-PE, C50 = concentration needed to reach 50% of the cellular viability
Outline: as §2

| Compound | Ki (BCLXL WT) [nM] | TR_FRET EKI BCLxL/WT selectivty ratio (BCLXL WT) | Ki (BCL2 G101V [1]) [nM] | TR_FRET EKI G101V/WT selectivty ratio (BCL2 G101V [2]) | Ki (BCL2 D103Y) [nM] | Ki (BCL2 WT) [nM] | Ratio (G101V/WT) (KMS-12-PE Bcl-2 G101V) | IC50 (KMS-12-PE Bcl-2 G101V) [µM] | IC50 (KMS-12-PE Bcl-2 WT) [µM] |
| --- | --- | --- | --- | --- | --- | --- | --- | --- | --- |
| Cc1c(N(C(=O)c2cc(-c3cc4c(cc3C(=O)N3Cc5ccccc5C[C@H]3C)CN(C(=O)Cc3ccc(Br)cc3F)CC4)n(C)c2C)c2ccc(O)cc2)cc(C#N)n1C [Example 24, 5-{2-[2-(4-bromo-2-fluorophenyl)acetyl]-7-[(3R)-3-methyl-1,2,3,4-tetrahydroisoquinoline-2-carbonyl]-1,2,3,4-tetrahydroisoquinolin-6-yl}-N-(5-cyano-1,2-dimethyl-1H-pyrrol-3-yl)-N-(4-hydroxyphenyl)-1,2-dimethyl-1H-pyrrole-3-carboxamide] | 6.1 | 11.5 | 1.8 | 3.4 | 1.02 | 0.53 | 7.19 | 0.0423 | 0.0059 |
| Cc1c(C(=O)N(c2ccc(O)cc2)c2cc(C#N)n(C(F)F)c2C)cc(-c2cc3c(cc2C(=O)N2Cc4ccccc4C[C@H]2CN2CCCCC2)CN(C(=O)Cc2ccc(OCCN4CCC(F)CC4)cc2F)CC3)n1C [Example 158] | 5.4 | 54.0 | 0.9 | 9.4 | 0.47 | 0.1 | 8.0412 | 0.0546 | 0.0068 |
| Cc1c(C(=O)N(c2ccc(O)cc2)c2cc(C#N)n(C(F)F)c2C)cc(-c2cc3c(cc2C(=O)N2Cc4ccccc4C[C@H]2C)CN(C(=O)Cc2ccc(OCCN4CCOCC4)cc2F)CC3)n1C [Example 94, N-[5-cyano-1-(difluoromethyl)-2-methylpyrrol-3-yl]-5-[2-(2-{2-fluoro-4-[2-(morpholin-4-yl)ethoxy]phenyl}acetyl)-7-{[(3R)-3-methyl-3,4-dihydro-1H-isoquinolin-2-yl]carbonyl}-3,4-dihydro-1H-isoquinolin-6-yl]-N-(4-hydroxyphenyl)-1,2-dimethylpyrrole-3-carboxamide] | 3.3 | 15.0 | 1.1 | 5.0 | 0.66 | 0.22 | 3.31 | 0.0107 | 0.0032 |

These reach a lower Ki (BCLXL WT). Values come first.

| Ki (BCLXL WT) [nM] | TR_FRET EKI BCLxL/WT selectivty ratio (BCLXL WT) | Ki (BCL2 G101V [1]) [nM] | TR_FRET EKI G101V/WT selectivty ratio (BCL2 G101V [2]) | Ki (BCL2 D103Y) [nM] | Ki (BCL2 WT) [nM] | Compound | Ratio (G101V/WT) (KMS-12-PE Bcl-2 G101V) | IC50 (KMS-12-PE Bcl-2 G101V) [µM] | IC50 (KMS-12-PE Bcl-2 WT) [µM] |
| --- | --- | --- | --- | --- | --- | --- | --- | --- | --- |
| 1.2 | 21.1 | 0.3 | 4.9 | 0.14 | 0.06 | Cc1c(N(C(=O)c2cc(-c3cc4c(cc3C(=O)N3Cc5ccccc5C[C@H]3CN3CC[C@@H](F)C3)CN(C(=O)Cc3ccc(OCCN5CCOCC5)cc3F)CC4)n(C)c2C)c2ccc(O)cc2)cc(C#N)n1C [Example 80, N-(5-cyano-1,2-dimethylpyrrol-3-yl)-5-[2-(2-{2-fluoro-4-[2-(morpholin-4-yl)ethoxy]phenyl}acetyl)-7-{[(3S)-3-{[(3R)-3-fluoropyrrolidin-1-yl]methyl}-3,4-dihydro-1H-isoquinolin-2-yl]carbonyl}-3,4-dihydro-1H-isoquinolin-6-yl]-N-(4-hydroxyphenyl)-1,2-dimethylpyrrole-3-carboxamide] | 5.66 | 0.0534 | 0.0094 |
| 1.1 | 35.5 | 0.2 | 6.5 | 0.09 | 0.03 | Cc1c(N(C(=O)c2cc(-c3cc4c(cc3C(=O)N3Cc5ccccc5C[C@H]3CN3CCCCC3)CN(C(=O)Cc3ccc(OCCN(C)CC5COC5)cc3F)CC4)n(C)c2C)c2ccc(O)cc2)cc(C#N)n1C [Example 103, N-(5-cyano-1,2-dimethyl-1H-pyrrol-3-yl)-5-(2-{2-[2-fluoro-4-(2-{methyl[(oxetan-3-yl)methyl]amino}ethoxy)phenyl]acetyl}-7-[(3S)-3-[(piperidin-1-yl)methyl]-1,2,3,4-tetrahydroisoquinoline-2-carbonyl]-1,2,3,4-tetrahydroisoquinolin-6-yl)-N-(4-hydroxyphenyl)-1,2-dimethyl-1H-pyrrole-3-carboxamide] | 6.66 | 0.0399 | 0.006 |
